US20240245770A1, “COMPOSITIONS AND METHODS FOR TREATING NEUROMUSCULAR DISORDERS” (The Regents of the University of California, priority 2019, published 2024)

Test system: serum cytokine/chemokine/growth factor/ligands of ALS patient
Assay: Serum Luminex, before and after NAC treatment
Type: in vivo, human
Experimental: (§1) Serum Luminex. Serum from patients were used to determine the levels of cytokine/chemokine/growth factor/ligands secretion using multiplex luminex assay. Scatter plot was prepared using the levels of cytokine/chemokine/growth factor/ligands in serum obtained at different dates from patients as compared to controls.
Serum Luminex. Serum from patients were used to determine the levels of cytokine/chemokine/growth factor/ligands secretion using multiplex luminex assay.
as §1

[1] = JC sera Apr. 30, 2020 (NAC infusion)
[2] = JC sera Jun. 22, 2020 (NAC infusion)
[3] = JC sera Jun. 24, 2020 (NAC infusion)
[4] = JC sera May 7, 2020 (NAC infusion)
[5] = JC sera May 14, 2020 (NAC infusion)
[6] = JC sera May 21, 2020 (NAC infusion)
[7] = JC sera May 28, 2020 (NAC infusion)
[8] = serum of ALS patient after NAC treatment

## CC(=O)N[C@@H](CS)C(=O)O [NAC, N-Acetyl-Cysteine]
JC sera Apr. 30, 2020
  IL-5: 2 pg/mL
  IL-7: 6.25 pg/mL
  IL-8: 4.28 pg/mL
  IL-21: 0.86 pg/mL
  IL-23: 138.55 pg/mL
  MIP-1a: 11.35 pg/mL
  MIP-1b: 17.78 pg/mL
  TNFa: 8.46 pg/mL
[1]
  Franktalkine: 35.49 pg/mL
  GM-CSF: 59.71 pg/mL
  IFNg: 9.14 pg/mL
  IL-1b: 1.03 pg/mL
  IL-10: 5.71 pg/mL
  IL-12p70: 2.32 pg/mL
  ITAC: 14.07 pg/mL
  MIP-3a: 8.17 pg/mL
JC sera Jun. 22, 2020
  IL-2: 0.04 pg/mL
  IL-4: 15.17 pg/mL
  IL-5: 2.44 pg/mL
  IL-6: 3.33 pg/mL
  IL-7: 7.25 pg/mL
  IL-8: 5.21 pg/mL
  IL-21: 0.86 pg/mL
  IL-23: 158.41 pg/mL
  MIP-1a: 12.15 pg/mL
  MIP-1b: 24.21 pg/mL
  TNFa: 9.2 pg/mL
[2]
  Franktalkine: 35.49 pg/mL
  GM-CSF: 50.3 pg/mL
  IFNg: 10.42 pg/mL
  IL-1b: 0.91 pg/mL
  IL-10: 8.54 pg/mL
  IL-12p70: 2.32 pg/mL
  IL-13: 5.03 pg/mL
  IL-17A: 6.86 pg/mL
  ITAC: 13.07 pg/mL
  MIP-3a: 10.65 pg/mL
JC sera Jun. 24, 2020
  IL-2: 0.17 pg/mL
  IL-4: 10.14 pg/mL
  IL-5: 2.1 pg/mL
  IL-7: 5.13 pg/mL
  IL-8: 4.47 pg/mL
  IL-21: 0.62 pg/mL
  IL-23: 106.21 pg/mL
  MIP-1a: 12.15 pg/mL
  MIP-1b: 27.78 pg/mL
  TNFa: 8.82 pg/mL
[3]
  Franktalkine: 35.11 pg/mL
  GM-CSF: 111.4 pg/mL
  IFNg: 4.58 pg/mL
  IL-1b: 0.77 pg/mL
  IL-10: 23.69 pg/mL
  IL-12p70: 1.64 pg/mL
  IL-13: 3.95 pg/mL
  IL-17A: 2.46 pg/mL
  ITAC: 10.44 pg/mL
  MIP-3a: 8.55 pg/mL
JC sera May 7, 2020
  IL-2: 0.21 pg/mL
  IL-4: 7.5 pg/mL
  IL-5: 1.77 pg/mL
  IL-6: 1.37 pg/mL
  IL-7: 4.06 pg/mL
  IL-8: 3.39 pg/mL
  IL-21: 0.62 pg/mL
  IL-23: 116.26 pg/mL
  MIP-1a: 10.39 pg/mL
  MIP-1b: 16.67 pg/mL
  TNFa: 7.45 pg/mL
[4]
  Franktalkine: 33.33 pg/mL
  GM-CSF: 58.44 pg/mL
  IFNg: 4.81 pg/mL
  IL-1b: 0.72 pg/mL
  IL-10: 6.63 pg/mL
  IL-12p70: 1.6 pg/mL
  IL-13: 3.99 pg/mL
  IL-17A: 2.78 pg/mL
  ITAC: 13.07 pg/mL
  MIP-3a: 7.8 pg/mL
JC sera May 12, 2020
  IL-2: 0 pg/mL
  IL-4: 10.14 pg/mL
  IL-6: 1.76 pg/mL
  IL-7: 5.13 pg/mL
  IL-8: 4.18 pg/mL
  IL-21: 0.62 pg/mL
  IL-23: 92.37 pg/mL
  MIP-1a: 11.8 pg/mL
  MIP-1b: 25.53 pg/mL
  TNFa: 7.14 pg/mL
JC sera May 14, 2020
  IL-2: 8.16 pg/mL
  IL-4: 13.73 pg/mL
  IL-5: 1.72 pg/mL
  IL-6: 1.07 pg/mL
  IL-7: 6.39 pg/mL
  IL-8: 5.32 pg/mL
  IL-21: 0.56 pg/mL
  IL-23: 106.21 pg/mL
  MIP-1a: 12.15 pg/mL
  MIP-1b: 19.37 pg/mL
  TNFa: 7.77 pg/mL
[5]
  Franktalkine: 31.36 pg/mL
  GM-CSF: 53.64 pg/mL
  IFNg: 4.14 pg/mL
  IL-1b: 0.8 pg/mL
  IL-10: 4.47 pg/mL
  IL-12p70: 1.81 pg/mL
  IL-13: 4.08 pg/mL
  IL-17A: 2.24 pg/mL
  ITAC: 12.13 pg/mL
  MIP-3a: 6.78 pg/mL
[6]
  Franktalkine: 32.65 pg/mL
  GM-CSF: 48.19 pg/mL
  IFNg: 5.58 pg/mL
  IL-1b: 0.8 pg/mL
  IL-10: 3.7 pg/mL
  IL-12p70: 1.72 pg/mL
  IL-13: 3.99 pg/mL
  ITAC: 15.13 pg/mL
  MIP-3a: 6.78 pg/mL
JC sera May 28, 2020
  IL-2: 0.01 pg/mL
  IL-4: 11.8 pg/mL
  IL-5: 2.21 pg/mL
  IL-6: 2.03 pg/mL
  IL-7: 5.99 pg/mL
  IL-8: 4.47 pg/mL
  IL-21: 0.75 pg/mL
  IL-23: 144.83 pg/mL
  MIP-1a: 11.46 pg/mL
  MIP-1b: 25.53 pg/mL
  TNFa: 8.64 pg/mL
[7]
  Franktalkine: 37.04 pg/mL
  GM-CSF: 75.6 pg/mL
  IFNg: 8.94 pg/mL
  IL-1b: 0.87 pg/mL
  IL-10: 6.63 pg/mL
  IL-12p70: 2.16 pg/mL
  IL-13: 4.44 pg/mL
  IL-17A: 5.49 pg/mL
  ITAC: 14.77 pg/mL
  MIP-3a: 8.17 pg/mL
Serum Luminex, Table 137
  serum cytokines of ALS patient compared to healthy twin after NAC treatment: only IFN-g and TNF-α remained higher in ALS patient when compared to healthy twin
Serum from ALS patient, Table 138
  change of serum cytokines after NAC treatment: Decrease in respective cytokines
[8]
  Fractalkine: 39.89
  GCSF: 82.17
  IFNa2: 22.87
  IFNg: 21.25
  IL-6: 14.86
  IL-12p40: 15.96
  IL-12p70: 9.801
  IL-17a: 14.45
  Rantes: 9578
Serum of ALS patient after NAC treatment, in pg/mL
  TNFa: 29.18
